Laboratory results reported in BindingDB's records for doi:10.3109/14756360903179393 (University of Orleans, 2010).
Values belong to the compound of their own block, whether it stands above or below them.

Legend:
[1] = target: T1, 5-hydroxytryptamine receptor 1A (Rattus norvegicus, UniProt P19327); experiment: Radioligand Binding Assay
T1 sequence (P19327 whole entry): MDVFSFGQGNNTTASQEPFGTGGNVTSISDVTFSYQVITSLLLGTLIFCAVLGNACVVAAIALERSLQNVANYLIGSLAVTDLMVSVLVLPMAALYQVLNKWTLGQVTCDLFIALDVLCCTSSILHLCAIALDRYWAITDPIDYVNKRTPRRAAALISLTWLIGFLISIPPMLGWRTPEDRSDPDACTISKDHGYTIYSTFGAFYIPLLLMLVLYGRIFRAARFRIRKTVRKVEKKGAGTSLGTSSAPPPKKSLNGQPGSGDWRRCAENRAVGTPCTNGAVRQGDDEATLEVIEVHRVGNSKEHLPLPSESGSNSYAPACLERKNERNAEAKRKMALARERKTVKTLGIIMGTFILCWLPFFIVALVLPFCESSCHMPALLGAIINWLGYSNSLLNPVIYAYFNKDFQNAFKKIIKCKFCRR
Procedure: (§1) 1H nuclear magnetic resonance (NMR) and 13C NMR spectra were recorded on a Bruker Avance DPX250 spectrometer (250.131 MHz), in CDCl3 and using tetramethylsilane asinternal standard; multiplicities were determined by the DEPT 135 sequence, and chemical shifts are reported in parts per million (ppm). Coupling constants are reported in units of hertz (Hz) if applicable. Infrared (IR) spectra were recorded on a PerkinElmer Paragon 1000 PC Fourier transform infrared (FTIR) spectrometer using NaCl films or KBr pellets. Mass spectra (MS) were recorded on a PerkinElmerSCIEX AOI 300 spectrometer. Flash chromatography was performed on Merck […] (230-400 mesh) silica gel under nitrogen pressure. Thin layer chromatography (TLC)was carried out on Merck silica gel 60 F254 precoated plates. Visualization was made with ultraviolet light at 254 nm.

[2] = target: 5-hydroxytryptamine receptor 7 (Homo sapiens, UniProt P34969); experiment: Radioligand Binding Assay
Procedure: as §1

Sequence of 5-hydroxytryptamine receptor 7 (P34969 whole entry): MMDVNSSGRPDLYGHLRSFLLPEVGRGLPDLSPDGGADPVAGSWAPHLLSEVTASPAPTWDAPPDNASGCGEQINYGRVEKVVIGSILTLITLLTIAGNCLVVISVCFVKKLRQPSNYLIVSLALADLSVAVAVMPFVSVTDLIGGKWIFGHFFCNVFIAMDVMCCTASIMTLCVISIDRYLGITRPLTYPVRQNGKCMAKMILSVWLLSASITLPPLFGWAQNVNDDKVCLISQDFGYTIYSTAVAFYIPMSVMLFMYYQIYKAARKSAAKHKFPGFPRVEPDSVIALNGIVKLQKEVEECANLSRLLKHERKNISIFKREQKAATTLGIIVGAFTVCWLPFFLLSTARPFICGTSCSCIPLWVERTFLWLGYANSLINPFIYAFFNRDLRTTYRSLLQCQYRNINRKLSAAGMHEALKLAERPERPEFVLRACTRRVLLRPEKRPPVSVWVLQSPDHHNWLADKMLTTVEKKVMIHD

Compound: c1cnc2c(c1)ccn2CCN1CCCN2CCCCC2C1 (stereo unspecified) [2-(2-Pyrrolo[2,3-b]pyridin-1-ylethyl)decahydropyrido[1,2-a][1,4]diazepine (5)]
Ki [1]: 24.5 µM
Ki [2]: 14 µM

Ki [2]: 23.6 µM
Compound: O=c1[nH]c2ccccc2n1CCN1CCCN2CCCCC2C1 (stereo unspecified) [1-[2-(Octahydropyrido[1,2-a][1,4]diazepin-2-yl)ethyl]-1,3-dihydrobenzo-imidazol-2-one (8)]

Compound: c1cc2ccn(CCN3CCCN4CCCCC4C3)c2cn1 (stereo unspecified) [2-[(2-Pyrrolo[2,3-c]pyridin-1-yl)ethyl]decahydropyrido[1,2-a][1,4]diazepine (7)]
Ki [1]: > 10 µM
Ki [2]: > 10 µM

Compound: Clc1ccc2ccn(CCN3CCCN4CCCCC4C3)c2n1 (stereo unspecified) [2-[2-(6-Chloropyrrolo[2,3-b]pyridin-1-yl)ethyl]decahydropyrido[1,2-a][1,4]diazepine (11)]
Ki [1]: 15 µM
Ki [2]: 0.16 µM

Compound: Brc1ccc2ccn(CCN3CCCN4CCCCC4C3)c2n1 (stereo unspecified) [2-[2-(6-Bromopyrrolo[2,3-b]pyridin-1-yl)ethyl]decahydropyrido[1,2-a][1,4]diazepine (10)]
Ki [1]: 14.9 µM
Ki [2]: 0.492 µM

Compound: Clc1nccc2ccn(CCN3CCCN4CCCCC4C3)c12 (stereo unspecified) [2-[2-(7-Chloropyrrolo[2,3-c]pyridin-1-yl)ethyl]decahydropyrido[1,2-a][1,4]diazepine (6)]
Ki [1]: 16 µM
Ki [2]: 5.31 µM
